Reference: patent publication US10405547B2, “Substituted cyclic amides as herbicides” (FMC Corporation, priority 2015, dated 2019)

How the values were obtained:
Type in all cases: in vivo
[1] = tested on: sedge, umbrella (small-flower umbrella sedge, Cyperus difformis); assay: Test B flooded paddy test, umbrella sedge; details: applied to paddy water, visual rating after 13 to 15 days, scale 0 (no effect) to 100 (complete control)
Method in brief: (§1)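 Test compounds are applied straight into paddy water held 3 cm above the soil surface, with that flood maintained for the whole test. After 13 to 15 days in the greenhouse, each species is scored visually relative to controls.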

[2] = tested on: ryegrass, Italian (Lolium multiflorum); assay: Test A preemergence, Italian ryegrass; details: 0 to 100 scale (0 no effect, 100 complete control)
Method in brief: (§2)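 Injury scores (0 no effect, 100 complete control) were assigned by visually comparing treated with untreated plants after about 10 days of greenhouse growth. Seeds for soil treatment were sown into a loam and sand blend, while plants for foliar treatment grew in pots of that same blend.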

[3] = tested on: galium (catchweed bedstraw, Galium aparine); assay: Test A postemergence, galium; details: visual injury, 0 to 100 scale (0 no effect, 100 complete control), approximately 10 days
Method in brief: as §2

[4] = tested on: ducksalad (Heteranthera limosa); assay: Test B flooded paddy test, ducksalad; details: applied to paddy water, visual rating after 13 to 15 days, scale 0 (no effect) to 100 (complete control)
Method in brief: as §1

corn (Zea mays) = assay: Test A postemergence, corn; details: visual injury, 0 to 100 scale (0 no effect, 100 complete control), approximately 10 days
Method in brief: as §2

[5] = tested on: ryegrass, Italian (Lolium multiflorum); assay: Test A postemergence, Italian ryegrass; details: visual injury, 0 to 100 scale (0 no effect, 100 complete control), approximately 10 days
Method in brief: as §2

[6] = tested on: foxtail, giant (Setaria faberii); assay: Test A preemergence, giant foxtail; details: 0 to 100 scale (0 no effect, 100 complete control)
Method in brief: as §2

kochia (Kochia scoparia) [7] = assay: Test A postemergence, kochia; details: visual injury, 0 to 100 scale (0 no effect, 100 complete control), approximately 10 days
Method in brief: as §2

[8] = tested on: ragweed (common ragweed, Ambrosia elatior); assay: Test A postemergence, ragweed; details: visual injury, 0 to 100 scale (0 no effect, 100 complete control), approximately 10 days
Method in brief: as §2

[9] = tested on: wheat (Triticum aestivum); assay: Test A postemergence, wheat; details: visual injury, 0 to 100 scale (0 no effect, 100 complete control), approximately 10 days
Method in brief: as §2

[10] = tested on: blackgrass (Alopecurus myosuroides); assay: Test A postemergence, blackgrass; details: visual injury, 0 to 100 scale (0 no effect, 100 complete control), approximately 10 days
Method in brief: as §2

[11] = tested on: pigweed (Amaranthus retroflexus); assay: Test A postemergence, pigweed; details: visual injury, 0 to 100 scale (0 no effect, 100 complete control), approximately 10 days
Method in brief: as §2

kochia (Kochia scoparia) [12] = assay: Test A preemergence, kochia; details: 0 to 100 scale (0 no effect, 100 complete control)
Method in brief: as §2

[13] = tested on: barnyardgrass (Echinochloa crus-galli); assay: Test A postemergence, barnyardgrass; details: visual injury, 0 to 100 scale (0 no effect, 100 complete control), approximately 10 days
Method in brief: as §2

[14] = tested on: barnyardgrass (Echinochloa crus-galli); assay: Test A preemergence, barnyardgrass; details: 0 to 100 scale (0 no effect, 100 complete control)
Method in brief: as §2

[15] = tested on: barnyardgrass (Echinochloa crus-galli); assay: Test B flooded paddy test, barnyardgrass; details: applied to paddy water, visual rating after 13 to 15 days, scale 0 (no effect) to 100 (complete control)
Method in brief: as §1

[16] = tested on: pigweed (Amaranthus retroflexus); assay: Test A preemergence, pigweed; details: 0 to 100 scale (0 no effect, 100 complete control)
Method in brief: as §2

[17] = tested on: foxtail, giant (Setaria faberii); assay: Test A postemergence, giant foxtail; details: visual injury, 0 to 100 scale (0 no effect, 100 complete control), approximately 10 days
Method in brief: as §2

[18] = tested on: ragweed (common ragweed, Ambrosia elatior); assay: Test A preemergence, ragweed; details: 0 to 100 scale (0 no effect, 100 complete control)
Method in brief: as §2

rice (Oryza sativa) = assay: Test B flooded paddy test, rice; details: applied to paddy water, visual rating after 13 to 15 days, scale 0 (no effect) to 100 (complete control)
Method in brief: as §1

| SMILES | Plant response rating, Ryegrass, Italian ([2]; 125 g ai/ha) | Plant response rating, Ryegrass, Italian ([2]; 500 g ai/ha) | Plant response rating, Galium ([3]; 125 g ai/ha) | Plant response rating, Galium ([3]; 500 g ai/ha) | Plant response rating, Corn (corn (Zea mays); 125 g ai/ha) | Plant response rating, Corn (corn (Zea mays); 500 g ai/ha) | Plant response rating, Ryegrass, Italian ([5]; 125 g ai/ha) | Plant response rating, Ryegrass, Italian ([5]; 500 g ai/ha) | Plant response rating, Foxtail, Giant ([6]; 125 g ai/ha) | Plant response rating, Foxtail, Giant ([6]; 500 g ai/ha) | Plant response rating, Kochia (kochia (Kochia scoparia) [7]; 125 g ai/ha) | Plant response rating, Kochia (kochia (Kochia scoparia) [7]; 500 g ai/ha) | Plant response rating, Ragweed ([8]; 125 g ai/ha) | Plant response rating, Ragweed ([8]; 500 g ai/ha) | Plant response rating, Wheat ([9]; 125 g ai/ha) | Plant response rating, Wheat ([9]; 500 g ai/ha) | Plant response rating, Blackgrass ([10]; 125 g ai/ha) | Plant response rating, Blackgrass ([10]; 500 g ai/ha) | Plant response rating, Pigweed ([11]; 125 g ai/ha) | Plant response rating, Pigweed ([11]; 500 g ai/ha) | other results |
| --- | --- | --- | --- | --- | --- | --- | --- | --- | --- | --- | --- | --- | --- | --- | --- | --- | --- | --- | --- | --- | --- |
| O=C1NCC(c2cccc(OCC3CC3)c2)C1C(=O)Nc1ccccc1F (stereo not drawn) [Compound 11] | 0 | 20 | 0 | 30 | 0 | 20 | 0 | 20 | 80 | 90 | 0 | 0 | 30 | 40 | 0 | 20 | 0 | 40 | 0 | 20 | Plant response rating, Sedge, Umbrella (Flood) ([1]; 250 g ai/ha): 0; Plant response rating, Ducksalad (Flood) ([4]; 250 g ai/ha): 0; Plant response rating, Kochia (kochia (Kochia scoparia) [12]; 125 g ai/ha): 0; Plant response rating, Kochia (kochia (Kochia scoparia) [12]; 500 g ai/ha): 40; Plant response rating, Barnyardgrass ([13]; 125 g ai/ha): 50; Plant response rating, Barnyardgrass ([13]; 500 g ai/ha): 90; Plant response rating, Barnyardgrass ([14]; 125 g ai/ha): 60; Plant response rating, Barnyardgrass ([14]; 500 g ai/ha): 90; Plant response rating, Barnyardgrass (Flood) ([15]; 250 g ai/ha): 0; Plant response rating, Pigweed ([16]; 125 g ai/ha): 0; Plant response rating, Pigweed ([16]; 500 g ai/ha): 30; Plant response rating, Foxtail, Giant ([17]; 125 g ai/ha): 50; Plant response rating, Foxtail, Giant ([17]; 500 g ai/ha): 90; Plant response rating, Ragweed ([18]; 125 g ai/ha): 0; Plant response rating, Ragweed ([18]; 500 g ai/ha): 0; Plant response rating, Rice (Flood) (rice (Oryza sativa); 250 g ai/ha): 0 |
| CN1CC(c2cccc(Oc3ccc(F)cc3)c2)C(C(=O)Nc2cccc(F)c2F)C1=O (single isomer, unassigned) [Compound 46] | 20 | 80 | 60 | 70 | 40 | 50 | 0 | 30 | 90 | 90 | 40 | 60 | 0 | 0 | 0 | 20 | 0 | 30 | 50 | 70 | Plant response rating, Sedge, Umbrella (Flood) ([1]; 250 g ai/ha): 0; Plant response rating, Ducksalad (Flood) ([4]; 250 g ai/ha): 30; Plant response rating, Kochia (kochia (Kochia scoparia) [12]; 125 g ai/ha): 0; Plant response rating, Kochia (kochia (Kochia scoparia) [12]; 500 g ai/ha): 20; Plant response rating, Barnyardgrass ([13]; 125 g ai/ha): 90; Plant response rating, Barnyardgrass ([13]; 500 g ai/ha): 90; Plant response rating, Barnyardgrass ([14]; 125 g ai/ha): 70; Plant response rating, Barnyardgrass ([14]; 500 g ai/ha): 80; Plant response rating, Barnyardgrass (Flood) ([15]; 250 g ai/ha): 0; Plant response rating, Pigweed ([16]; 125 g ai/ha): 40; Plant response rating, Pigweed ([16]; 500 g ai/ha): 70; Plant response rating, Foxtail, Giant ([17]; 125 g ai/ha): 70; Plant response rating, Foxtail, Giant ([17]; 500 g ai/ha): 80; Plant response rating, Ragweed ([18]; 125 g ai/ha): 0; Plant response rating, Ragweed ([18]; 500 g ai/ha): 30; Plant response rating, Rice (Flood) (rice (Oryza sativa); 250 g ai/ha): 0 |
| O=C1NCC(c2cccc(Oc3ccccn3)c2)C1C(=O)Nc1ccc(F)c(F)c1F (stereo not drawn) [Compound 42] | 0 | 0 | 0 | 30 | 0 | 0 | 0 | 0 | 80 | 90 | 0 | 0 | 0 | 0 | 0 | 0 | 0 | 0 | 0 | 0 | Plant response rating, Sedge, Umbrella (Flood) ([1]; 500 g ai/ha): 0; Plant response rating, Ducksalad (Flood) ([4]; 500 g ai/ha): 80; Plant response rating, Kochia (kochia (Kochia scoparia) [12]; 125 g ai/ha): 0; Plant response rating, Kochia (kochia (Kochia scoparia) [12]; 500 g ai/ha): 0; Plant response rating, Barnyardgrass ([13]; 125 g ai/ha): 40; Plant response rating, Barnyardgrass ([13]; 500 g ai/ha): 60; Plant response rating, Barnyardgrass ([14]; 125 g ai/ha): 40; Plant response rating, Barnyardgrass ([14]; 500 g ai/ha): 80; Plant response rating, Barnyardgrass (Flood) ([15]; 500 g ai/ha): 0; Plant response rating, Pigweed ([16]; 125 g ai/ha): 0; Plant response rating, Pigweed ([16]; 500 g ai/ha): 10; Plant response rating, Foxtail, Giant ([17]; 125 g ai/ha): 50; Plant response rating, Foxtail, Giant ([17]; 500 g ai/ha): 70; Plant response rating, Ragweed ([18]; 125 g ai/ha): 0; Plant response rating, Ragweed ([18]; 500 g ai/ha): 0; Plant response rating, Rice (Flood) (rice (Oryza sativa); 500 g ai/ha): 0 |
